{"source": "patent US11059827B2", "about": "“Compounds and compositions useful for treating disorders related to NTRK” (Blueprint Medicines Corporation, priority 2015, dated 2021)", "key": {"[1]": {"test_system": "KM12 wild type colon carcinoma cell line harboring the TPM3-NTRK1 fusion protein", "assay": "NTRK wild type cellular assay (KM12, CellTiter-Glo)", "format": "cell-based", "conditions": "KM12 wild type cells, 72 hr", "procedure": "(§1) NTRK Wild Type and G595R Mutant Cellular Assays Protocol\n(§2) KM12 wild type colon carcinoma cell line harboring the TPM3-NTRK1 fusion protein was obtained from the National Cancer Institute (NCI). This line has been previously shown to be dependent upon the NTRK activity derived from the NTRK fusion protein for growth and survival. […] Cells were first plated in 384-well plates at 1000 cells/well in complete media (10% FBS and 1% pen/strep) and incubated overnight at 37° C. Cells were then dosed with test articles at varying concentrations using the Bravo liquid handling system. Concentrations ranged from 25 uM down to […] (4-fold dilutions, 10 concentrations total). Each compound was run in duplicate per plate. DMSO and staurosporine (25 uM) were included on each plate as negative and positive controls for growth inhibition. 72 hr after dosing, assay plates were developed using CellTiter-Glo (Promega) and resultant luminescence was read on the Envision plate reader. IC50 determinations were calculated using a 4-parameter curve fitting algorithm"}, "[2]": {"test_system": "KM12 Cliff (G595R) cell line", "assay": "NTRK G595R mutant cellular assay (KM12 Cliff, CellTiter-Glo)", "format": "cell-based", "conditions": "KM12 Cliff (G595R) cells, 72 hr", "procedure": "as §1, §2"}}, "data": [{"smiles": "N#Cc1cnn2cc(F)c(N3C[C@@H](F)C[C@@H]3c3cc(F)cc(C(N)=O)c3)nc12", "note": "[Compound 15]", "values": [{"measurement": "IC50", "setting": "[1]", "value": "10 to 100", "unit": "nM"}, {"measurement": "IC50", "setting": "[2]", "value": "10 to 100", "unit": "nM"}]}]}
